Test results from patent US20240072809A1, “ASGPR-BINDING COMPOUNDS FOR THE DEGRADATION OF EXTRACELLULAR PROTEINS” (Avilar Therapeutics, Inc., priority 2020, published 2024).
Bridge positions count the residues as written; N and C are the ends. Peptide text beside a SMILES is read from it. * marks the point of attachment. X3 = CO[C@@H]1O[C@H](COCCOCCOCCOCCNC(=O)CCOCC(COCCC(=O)NCCOCCOCCOCCOC[C@H]2O[C@@H](OC)[C@H](NC(C)=O)[C@@H](O)[C@H]2O)(COCCC(=O)NCCOCCOCCOCCOC[C@H]2O[C@@H](OC)[C@H](NC(C)=O)[C@@H](O)[C@H]2O)NC(=O)COCCOCCOCC(=O)*)[C@H](O)[C@H](O)[C@H]1NC(C)=O

The compounds below were run against ASGPR (Homo sapiens (Human), UniProt P07306) (assay: Affinity to ASGPR measured by surface plasmon resonance (SPR)). Details: ASGPR ligands with linker, Table 5; read-out: ASGPR_SPR Binding KD.
Format: binding

Chain of ASGPR (P07306 whole entry): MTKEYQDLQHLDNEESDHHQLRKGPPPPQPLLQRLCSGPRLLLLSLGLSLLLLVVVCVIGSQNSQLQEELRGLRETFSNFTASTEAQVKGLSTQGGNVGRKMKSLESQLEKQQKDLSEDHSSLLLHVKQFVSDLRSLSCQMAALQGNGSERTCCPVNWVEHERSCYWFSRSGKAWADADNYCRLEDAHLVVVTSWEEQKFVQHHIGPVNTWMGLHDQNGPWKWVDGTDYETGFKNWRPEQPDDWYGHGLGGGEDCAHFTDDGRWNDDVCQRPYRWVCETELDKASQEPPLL

| Structure (SMILES) | Kd [µM] |
| --- | --- |
| NC(COCCC(=O)NCCOCCOCCOCCOC[C@H]1OC[C@H](Nc2nccc(C(F)(F)F)n2)[C@@H](O)[C@H]1O)COCCC(=O)NCCOCCOCCOCCOC[C@H]1OC[C@H](Nc2nccc(C(F)(F)F)n2)[C@@H](O)[C@H]1O [Compound A422, 3,3′-((2-aminopropane-1,3-diyl)bis(oxy))bis(N-(1-((2R,3R,4R,5S)-3,4-dihydroxy-5-((4-(trifluoromethyl)pyrimidin-2-yl)amino)tetrahydro-2H-pyran-2-yl)-2,5,8,11-tetraoxatridecan-13-yl)propanamide)] | < 100 |
| O=[N+]([O-])c1ccc(NCCOCCOCCOCCOC[C@H]2OC[C@H](Nc3nccc(C(F)(F)F)n3)[C@@H](O)[C@H]2O)c([N+](=O)[O-])c1 [Compound 35, (2R,3R,4R,5S)-2-(13-((2,4-dinitrophenyl)amino)-2,5,8,11-tetraoxatridecyl)-5-((4-(trifluoromethyl)pyrimidin-2-yl)amino)tetrahydro-2H-pyran-3,4-diol] | < 100 |

Same assay, conditions: ASGPR ligands, Table 2; Biacore 8K, 25° C., steady state fit; read-out: SPR Binding External Calculation: KD

| Kd [µM] | Structure (SMILES) |
| --- | --- |
| < 100 | C=CC(=O)N[C@H]1[C@H](OC)O[C@H](CO)[C@H](O)[C@@H]1O [Compound A118, N-((2R,3R,4R,5R,6R)-4,5-dihydroxy-6-(hydroxymethyl)-2-methoxytetrahydro-2H-pyran-3-yl)acrylamide] |
| < 100 | CO[C@@H]1O[C@H](CO)[C@H](O)[C@H](O)[C@H]1Nc1nc(N2CCN(C)CC2)ns1 [Compound A116, (2R,3R,4R,5R,6R)-2-(hydroxymethyl)-6-methoxy-5-((3-(4-methylpiperazin-1-yl)-1,2,4-thiadiazol-5-yl)amino)tetrahydro-2H-pyran-3,4-diol] |
| > 1000 | N[C@@H]1CO[C@H](CO)[C@H](O)[C@@H]1O [Compound A128, (2R,3R,4R,5R)-5-amino-2-(hydroxymethyl)tetrahydro-2H-pyran-3,4-diol] |
| 100 to 500 | CO[C@@H]1O[C@H](CO)[C@H](O)[C@H](O)[C@H]1N [Compound A90, (2R,3R,4R,5R,6R)-5-amino-2-(hydroxymethyl)-6-methoxytetrahydro-2H-pyran-3,4-diol] |
| < 100 | CO[C@@H]1O[C@H](CO)[C@H](O)[C@H](O)[C@H]1Nc1nc(Cl)ns1 [Compound A106, (2R,3R,4R,5R,6R)-5-((3-chloro-1,2,4-thiadiazol-5-yl)amino)-2-(hydroxymethyl)-6-methoxytetrahydro-2H-pyran-3,4-diol] |
| < 100 | CO[C@H]1O[C@H](CO)[C@H](O)[C@H](O)[C@H]1Nc1nc(Cl)ns1 [Compound A105, (2R,3R,4R,5R,6S)-5-((3-chloro-1,2,4-thiadiazol-5-yl)amino)-2-(hydroxymethyl)-6-methoxytetrahydro-2H-pyran-3,4-diol] |

| Structure (SMILES) | Kd [µM] |
| --- | --- |
| [N-]=[N+]=NCC1CO[C@H](CO)[C@H](O)[C@@H]1O (stereo partly drawn) [Compound A184, (2R,3R,4R)-5-(azidomethyl)-2-(hydroxymethyl)tetrahydro-2H-pyran-3,4-diol] | < 100 |

Same assay, conditions: ASGPR ligands, Table 4; class symbols; read-out: ASGPR_PR Binding KD

| Structure (SMILES) | Kd [µM] |
| --- | --- |
| OC[C@@]12CO[C@@H](O1)[C@H](Nc1nccc(C(F)(F)F)n1)[C@@H](O)[C@H]2O [Compound A289] | < 100 |
| COc1nc(Cl)nc(N[C@H]2CO[C@H](CO)[C@H](O)[C@@H]2O)n1 [Compound A330] | < 100 |
| OC[C@H]1OC[C@H](Nc2nc(Br)ns2)[C@@H](O)[C@H]1O [Compound A299, (2R,3R,4R,5S)-5-[(3-bromo-1,2,4-thiadiazol-5-yl)amino]-2-(hydroxymethyl)oxane-3,4-diol] | < 100 |
| Nc1nsc(N[C@H]2CO[C@H](CO)[C@H](O)[C@@H]2O)n1 [Compound A341, (2R,3R,4R,5S)-5-((3-amino-1,2,4-thiadiazol-5-yl)amino)-2-(hydroxymethyl)tetrahydro-2H-pyran-3,4-diol] | < 100 |
| OC[C@H]1OC[C@H](Nc2cc(Cl)ncn2)[C@@H](O)[C@H]1O [Compound A321] | < 100 |
| COc1nc(C#N)cc(N[C@H]2CO[C@H](CO)[C@H](O)[C@@H]2O)n1 [Compound A326] | < 100 |
| O=S(=O)(N[C@H]1CO[C@H](CO)[C@H](O)[C@@H]1O)C(F)(F)F [Compound A344] | < 100 |
| OC[C@H]1OC[C@@H](N2CCOCC2)[C@@H](O)[C@H]1O [Compound A222, (2R,3R,4R,5R)-2-(hydroxymethyl)-5-morpholinotetrahydro-2H-pyran-3,4-diol] | 100 to 500 |
| CSc1ccnc(N[C@H]2CO[C@H](CO)[C@H](O)[C@@H]2O)n1 [Compound A336] | < 100 |
| NC(=O)[C@@H]1CO[C@H](CO)[C@H](O)[C@@H]1O [Compound A174, (3R,4R,5R,6R)-4,5-dihydroxy-6-(hydroxymethyl)tetrahydro-2H-pyran-3-carboxamide] | < 100 |
| OC[C@H]1OC[C@H](Nc2ncccn2)[C@@H](O)[C@H]1O [Compound A318] | < 100 |
| OC[C@H]1OC[C@H](Nc2nc(C(F)(F)F)ns2)[C@@H](O)[C@H]1O [Compound A300] | < 100 |
| OC[C@H]1OC[C@H](Nc2cncc(C(F)(F)F)n2)[C@@H](O)[C@H]1O [Compound A315] | < 100 |

Other lines, results leading:

| Kd [µM] | Structure (SMILES) |
| --- | --- |
| 100 to 500 | OC[C@H]1O[C@H]2[C@@H]([C@@H](O)[C@H]1O)C2(Cl)Cl [Compound A397, (1S,3R,4R,5R,6R)-7,7-dichloro-3-(hydroxymethyl)-2-oxabicyclo[4.1.0]heptane-4,5-diol] |
| < 100 | COc1cc(C#N)nc(N[C@H]2CO[C@H](CO)[C@H](O)[C@@H]2O)n1 [Compound A346, 2-(((3S,4R,5R,6R)-4,5-dihydroxy-6-(hydroxymethyl)tetrahydro-2H-pyran-3-yl)amino)-6-methoxypyrimidine-4-carbonitrile] |
| < 100 | CO[C@@H]1O[C@H](CO)[C@H](O)[C@H](O)[C@H]1Nc1nccc(C(F)(F)F)n1 [Compound A384] |
| < 100 | OC[C@@]12CO[C@@H](O1)[C@H](Nc1cncc(C(F)(F)F)n1)[C@@H](O)[C@H]2O [Compound A427] |
| < 100 | OC[C@H]1OC[C@H](Nc2nc3ccccc3s2)[C@@H](O)[C@H]1O [Compound A354, (2R,3R,4R,5S)-5-(benzo[d]thiazol-2-ylamino)-2-(hydroxymethyl)tetrahydro-2H-pyran-3,4-diol] |
| 100 to 500 | CN1CCN([C@@H]2CO[C@H](CO)[C@H](O)[C@@H]2O)C1=O [Compound A392, 1-((3R,4R,5R,6R)-4,5-dihydroxy-6-(hydroxymethyl)tetrahydro-2H-pyran-3-yl)-3-methylimidazolidin-2-one] |
| < 100 | COc1cc(N[C@H]2CO[C@H](CO)[C@H](O)[C@@H]2O)nc(C(F)(F)F)n1 [Compound A359, (2R,3R,4R,5S)-2-(hydroxymethyl)-5-((6-methoxy-2-(trifluoromethyl)pyrimidin-4-yl)amino)tetrahydro-2H-pyran-3,4-diol] |
| < 100 | CO[C@H]1O[C@H](CO)[C@H](O)[C@H](O)[C@H]1Nc1cccc(F)n1 [Compound A380] |

Same assay, conditions: ASGPR ligands, Table 4; numeric lower bounds; read-out: ASGPR_PR Binding KD

| Structure (SMILES) | Kd [µM] |
| --- | --- |
| OC[C@H]1OC=C(C(F)(F)F)[C@@H](O)[C@H]1O [Compound A221-2, (2R,3R,4R)-2-(hydroxymethyl)-5-(trifluoromethyl)-3,4-dihydro-2H-pyran-3,4-diol] | > 200 |
| CC(=O)N[C@@H]1CO[C@@H]2COC(C)(C)O[C@@H]2[C@@H]1O [Compound A127-2c, N-((4aR,7R,8R,8aR)-8-hydroxy-2,2-dimethylhexahydropyrano[3,2-d][1,3]dioxin-7-yl)acetamide] | > 200 |
| CC(=O)NCCC[C@@H]1CO[C@H](CO)[C@H](O)[C@@H]1O [Compound A163, N-(3-((3R,4R,5R,6R)-4,5-dihydroxy-6-(hydroxymethyl)tetrahydro-2H-pyran-3-yl)propyl)acetamide] | > 200 |
| OC[C@H]1OC[C@@H](Nc2ccncn2)[C@@H](O)[C@H]1O [Compound A149] | > 20 |
| CN(C)C(=O)[C@@H]1CO[C@H](CO)[C@H](O)[C@@H]1O [Compound A170, (3R,4R,5R,6R)-4,5-dihydroxy-6-(hydroxymethyl)-N,N-dimethyltetrahydro-2H-pyran-3-carboxamide] | > 200 |
| OC[C@H]1OC[C@H](Nc2cc(C(F)(F)F)ncn2)[C@@H](O)[C@H]1O [Compound A310] | > 20 |

The next lines start with the values.

| Kd [µM] | Structure (SMILES) |
| --- | --- |
| > 20 | COc1cc(C(N)=O)cc(N[C@H]2CO[C@H](CO)[C@H](O)[C@@H]2O)n1 [Compound A365, 2-(((3S,4R,5R,6R)-4,5-dihydroxy-6-(hydroxymethyl)tetrahydro-2H-pyran-3-yl)amino)-6-methoxyisonicotinamide] |
| > 20 | COc1cc(N2CCN(C)CC2)nc(N[C@H]2CO[C@H](CO)[C@H](O)[C@@H]2O)n1 [Compound A350, (2R,3R,4R,5S)-2-(hydroxymethyl)-5-((4-methoxy-6-(4-methylpiperazin-1-yl)pyrimidin-2-yl)amino)tetrahydro-2H-pyran-3,4-diol] |
| > 20 | CCOc1cc(C#N)nc(N[C@H]2CO[C@H](CO)[C@H](O)[C@@H]2O)n1 [Compound A368, 2-(((3S,4R,5R,6R)-4,5-dihydroxy-6-(hydroxymethyl)tetrahydro-2H-pyran-3-yl)amino)-6-ethoxypyrimidine-4-carbonitrile] |

Same assay, conditions: read-out: ASGPR_SPR Binding KD

| Structure (SMILES) | Kd [µM] |
| --- | --- |
| CO[C@@H]1O[C@H](COCCOCCOCCOCCNC(=O)CCOCC(COCCC(=O)NCCOCCOCCOCCOC[C@H]2O[C@@H](OC)[C@H](NC(C)=O)[C@@H](O)[C@H]2O)(COCCC(=O)NCCOCCOCCOCCOC[C@H]2O[C@@H](OC)[C@H](NC(C)=O)[C@@H](O)[C@H]2O)NC(=O)COCCOCCOCC(=O)N[C@@H](Cc2cnc[nH]2)C(=O)N[C@@H](CCC(N)=O)C(=O)N[C@H](C(=O)N[C@H]2CSSC[C@@H](C(=O)N[C@@H](Cc3ccccc3)C(=O)N[C@@H](CO)C(=O)N[C@H](C(N)=O)[C@@H](C)O)NC(=O)[C@H](C(C)C)NC(=O)[C@@H]3CCCN3C(=O)[C@H](CCCNC(=N)N)NC(=O)CNC(=O)[C@H](CCCNC(=N)N)NC(=O)[C@H](Cc3ccc(O)cc3)NC(=O)[C@H](CO)NC(=O)[C@H](CC(C)C)NC2=O)C(C)C)[C@H](O)[C@H](O)[C@H]1NC(C)=O [Compound 30] (X3-HQVCLSYRGRPVCFST-NH2; disulfide 4-13) | < 100 |
